The text below walks through data of patent US20220257713A1, “COMPOUND AND COMPOSITIONS FOR MULTITARGET TREATMENT OF TAU PROTEIN-RELATED DISORDERS” (FONDAZIONE IRCCS ISTITUTO NEUROLOGICO CARLO BESTA, priority 2019, published 2022).

Residues, ends and D or L forms follow the SMILES beside them.

For series [1], the system named is APPSwe/PS1DE9. Conditions: mouse, in vivo, 50 mg/kg. As to the method: FIG. 4. Mouse brain distribution of Aβ1-6A2V (D) peptide 2 hours after the last intranasal administration: A) Control and B) Treated Mice. FIG. 5. Effect of Aβ1-6A2V(D) on Aβ oligomer formation in the brain: biochemical assessment. APPSwe/PS1DE9 were treated with Aβ1-6A2V(D) at 50 mg/kg for five months. Control group was treated intranasally with PBS. A: Levels of Aβ aggregates in soluble and insoluble brain fractions after 2.5 months of treatment. B: Levels of Aβ aggregates in soluble and insoluble brain fractions after five months of treatment. * p<0.01; *** p<0.001. FIG. 6. Effect of Aβ1-6A2V(D) on Aβ deposits in mouse brain: neuropathological assessment. A: APPSwe/PS1DE9 were treated with Aβ1-6A2V(D) daily for five months at 50 mg/kg. Control group (CTRL) was treated intranasally with PBS. Amyloid burden measured by plaque count. ** p<0.01; *** p<0,001. B: Immunohistochemistry with the 4G8 anti-Aβ antibody. FIG. 7. Effect of Aβ1-6A2V(D) on synaptopathy. Subcellular fractionation of hippocampal homogenates from mice treated with Aβ1-6A2V(D) (right columns) or PBS (left columns). Western blot analysis with antibodies against synaptic receptors (NMDA-2A, GluN2B, GluA1 and GluA2) and scaffold protein (PSD95). The treatment with Aβ1-6A2V(D) preserved synaptic integrity. […]

The conditions of series [2]: mouse, in vivo, 16.7 mg/kg.
Procedure: FIG. 3. […] Mice were sacrificed 4 (A), 24 (B) and 48 (C) hours after the last administration.
To this end, preliminarily wild-type mice were treated once a week for 4 weeks at a dose of 16.7 mg/kg. Animals were sacrificed 4, 24, 48 hours from the last intranasal delivery.

`CC(C)[C@@H](NC(=O)[C@H](N)CC(=O)O)C(=O)N[C@H](CCC(=O)O)C(=O)N[C@H](Cc1ccccc1)C(=O)N[C@H](CCCNC(=N)N)C(=O)N[C@H](Cc1c[nH]cn1)C(=O)O` [Aβ1-6A2V(D)] (HELM PEPTIDE1{[dD].[dV].[dE].[dF].[dR].[dH]}$$$$V2.0; N-terminus and C-terminus assumed): the “Diffusion of the peptide in brain tissue” value in series [1] and in series [2] was “consistent diffusion of the peptide in brain tissue” throughout. Further, the “Presence of the peptide in cerebral cortex 48 hours after last treatment” value in series [2] was “can be still observed in the cerebral cortex”.
